Assay results: PubChem BioAssay (NCI)
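Results reflect a 48-hour exposure of cells in 96-well plates to compound at five concentrations. At the TGI there is no net growth.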

Experiments:
Test in all cases: DTP human tumour cell line panel, 48 h
OVCAR-5 ovarian = system: OVCAR-5 ovarian
SW-620 colon = system: SW-620 colon
RXF 393 renal = system: RXF 393 renal
SN12C renal = system: SN12C renal
DU-145 prostate = system: DU-145 prostate
RPMI-8226 leukemia = system: RPMI-8226 leukemia
NCI-H23 lung = system: NCI-H23 lung
OVCAR-8 ovarian = system: OVCAR-8 ovarian
OVCAR-4 ovarian = system: OVCAR-4 ovarian
MDA-MB-435 = system: MDA-MB-435
A549 NSCLC = system: A549 NSCLC
EKVX NSCLC = system: EKVX NSCLC
SF-539 CNS = system: SF-539 CNS
U251 CNS = system: U251 CNS
HCT-116 colon = system: HCT-116 colon
MCF7 breast = system: MCF7 breast
HS 578T breast = system: HS 578T breast
NCI-H460 lung = system: NCI-H460 lung
SK-MEL-2 melanoma = system: SK-MEL-2 melanoma
M14 melanoma = system: M14 melanoma
HOP-62 NSCLC = system: HOP-62 NSCLC
SK-MEL-5 melanoma = system: SK-MEL-5 melanoma
HL-60(TB) leukemia = system: HL-60(TB) leukemia
SR leukemia = system: SR leukemia
LOX IMVI melanoma = system: LOX IMVI melanoma
SK-OV-3 ovarian = system: SK-OV-3 ovarian
NCI/ADR-RES ovarian = system: NCI/ADR-RES ovarian
CAKI-1 renal = system: CAKI-1 renal
HCT-15 colon = system: HCT-15 colon
ACHN renal = system: ACHN renal
SK-MEL-28 melanoma = system: SK-MEL-28 melanoma
NCI-H226 lung = system: NCI-H226 lung
HT29 colon = system: HT29 colon
MDA-MB-231 breast = system: MDA-MB-231 breast
IGROV1 ovarian = system: IGROV1 ovarian
COLO 205 colon = system: COLO 205 colon
T-47D breast = system: T-47D breast
OVCAR-3 ovarian = system: OVCAR-3 ovarian
UACC-62 melanoma = system: UACC-62 melanoma
MDA-N = system: MDA-N
SF-295 CNS = system: SF-295 CNS
MOLT-4 leukemia = system: MOLT-4 leukemia
MALME-3M melanoma = system: MALME-3M melanoma
TK-10 renal = system: TK-10 renal
SF-268 CNS = system: SF-268 CNS
PC-3 prostate = system: PC-3 prostate
HCC-2998 colon = system: HCC-2998 colon
UO-31 renal = system: UO-31 renal
SNB-75 CNS = system: SNB-75 CNS
A498 renal = system: A498 renal
NCI-H522 lung = system: NCI-H522 lung
786-0 renal = system: 786-0 renal
K-562 leukemia = system: K-562 leukemia
SNB-19 CNS = system: SNB-19 CNS
HOP-92 NSCLC = system: HOP-92 NSCLC
CCRF-CEM leukemia = system: CCRF-CEM leukemia
KM12 colon = system: KM12 colon

Work on `COc1cc2c(c(OC)c1OC)-c1ccc(OC)c(=O)cc1C(NC(=O)CCCCCNc1ccc(N=[N+]=[N-])cc1[N+](=O)[O-])CC2` (configuration not stated) yielded a TGI (OVCAR-5 ovarian) of 31.4 µM, a TGI (SW-620 colon) of over 31.6 µM and a TGI (RXF 393 renal) of 6.67 µM. The TGI (SN12C renal) was 11.5 µM, the TGI (DU-145 prostate) was 0.354 µM and the TGI (RPMI-8226 leukemia) was under 0.01 µM. The TGI (NCI-H23 lung) was over 100 µM, the TGI (OVCAR-8 ovarian) was over 100 µM and the TGI (OVCAR-4 ovarian) was 16.2 µM. For the same molecule, the TGI (MDA-MB-435) was under 0.01 µM, the TGI (A549 NSCLC) was 5.8 µM and the TGI (EKVX NSCLC) was 0.644 µM. It also gave a TGI (SF-539 CNS) of under 0.01 µM, a TGI (U251 CNS) of 11.1 µM and a TGI (HCT-116 colon) of under 0.0105 µM. The TGI (MCF7 breast) was over 21.6 µM, the TGI (HS 578T breast) was 4.67 µM and the TGI (NCI-H460 lung) was under 0.0139 µM. It also gave a TGI (SK-MEL-2 melanoma) of under 0.01 µM, a TGI (M14 melanoma) of 5.44 µM and a TGI (HOP-62 NSCLC) of over 31.6 µM. The TGI (SK-MEL-5 melanoma) was under 0.01 µM, the TGI (HL-60(TB) leukemia) was under 0.01 µM and the TGI (SR leukemia) was under 0.01 µM. It also gave a TGI (LOX IMVI melanoma) of 9.55 µM, a TGI (SK-OV-3 ovarian) of 7.17 µM and a TGI (NCI/ADR-RES ovarian) of 5.62 µM. It also gave a TGI (CAKI-1 renal) of 18.4 µM, a TGI (HCT-15 colon) of 0.245 µM and a TGI (ACHN renal) of 24.4 µM. It also gave a TGI (SK-MEL-28 melanoma) of 25 µM, a TGI (NCI-H226 lung) of under 0.01 µM and a TGI (HT29 colon) of under 0.01 µM. It also gave a TGI (MDA-MB-231 breast) of under 0.01 µM, a TGI (IGROV1 ovarian) of over 31.6 µM and a TGI (COLO 205 colon) of under 0.01 µM. It also gave a TGI (T-47D breast) of over 31.6 µM, a TGI (OVCAR-3 ovarian) of under 0.0152 µM and a TGI (UACC-62 melanoma) of under 0.01 µM. It also gave a TGI (MDA-N) of under 0.01 µM, a TGI (SF-295 CNS) of 12.5 µM and a TGI (MOLT-4 leukemia) of under 0.01 µM. The TGI (MALME-3M melanoma) was 26.1 µM, the TGI (TK-10 renal) was 57.8 µM and the TGI (SF-268 CNS) was 10.3 µM. It also gave a TGI (PC-3 prostate) of under 0.01 µM.

`CC(C)(C)c1cc[n+](C[n+]2ccc(C(C)(C)C)cc2)cc1` gave a TGI (OVCAR-5 ovarian) of over 100 µM, a TGI (SW-620 colon) of over 100 µM and a TGI (RXF 393 renal) of over 100 µM. The TGI (HCC-2998 colon) was over 100 µM, the TGI (SN12C renal) was over 100 µM and the TGI (DU-145 prostate) was over 100 µM. The TGI (RPMI-8226 leukemia) was over 100 µM, the TGI (NCI-H23 lung) was over 100 µM and the TGI (OVCAR-8 ovarian) was over 100 µM. The TGI (UO-31 renal) was over 100 µM, the TGI (OVCAR-4 ovarian) was over 100 µM and the TGI (MDA-MB-435) was over 100 µM. The TGI (SNB-75 CNS) was over 100 µM, the TGI (A498 renal) was over 100 µM and the TGI (NCI-H522 lung) was over 100 µM. For the same molecule, the TGI (A549 NSCLC) was over 100 µM, the TGI (EKVX NSCLC) was over 100 µM and the TGI (SF-539 CNS) was over 100 µM. For the same molecule, the TGI (786-0 renal) was over 100 µM, the TGI (U251 CNS) was over 100 µM and the TGI (HCT-116 colon) was over 100 µM. It also gave a TGI (MCF7 breast) of over 100 µM, a TGI (HS 578T breast) of over 100 µM and a TGI (NCI-H460 lung) of over 100 µM. For the same molecule, the TGI (SK-MEL-2 melanoma) was over 100 µM, the TGI (K-562 leukemia) was over 100 µM and the TGI (M14 melanoma) was over 100 µM. The TGI (HOP-62 NSCLC) was over 100 µM, the TGI (SK-MEL-5 melanoma) was over 100 µM and the TGI (HL-60(TB) leukemia) was over 100 µM. It also gave a TGI (SR leukemia) of over 100 µM, a TGI (SK-OV-3 ovarian) of over 100 µM and a TGI (NCI/ADR-RES ovarian) of over 100 µM. It also gave a TGI (CAKI-1 renal) of over 100 µM, a TGI (HCT-15 colon) of over 100 µM and a TGI (ACHN renal) of over 100 µM. It also gave a TGI (SK-MEL-28 melanoma) of over 100 µM, a TGI (NCI-H226 lung) of over 100 µM and a TGI (HT29 colon) of over 100 µM. For the same molecule, the TGI (MDA-MB-231 breast) was over 100 µM, the TGI (IGROV1 ovarian) was over 100 µM and the TGI (SNB-19 CNS) was over 100 µM. For the same molecule, the TGI (COLO 205 colon) was over 100 µM, the TGI (T-47D breast) was over 100 µM and the TGI (OVCAR-3 ovarian) was over 100 µM. For the same molecule, the TGI (UACC-62 melanoma) was over 100 µM, the TGI (MDA-N) was over 100 µM and the TGI (HOP-92 NSCLC) was over 100 µM. For the same molecule, the TGI (SF-295 CNS) was over 100 µM, the TGI (MOLT-4 leukemia) was over 100 µM and the TGI (MALME-3M melanoma) was over 100 µM. The TGI (TK-10 renal) was over 100 µM, the TGI (CCRF-CEM leukemia) was over 100 µM and the TGI (KM12 colon) was over 100 µM. It also gave a TGI (SF-268 CNS) of over 100 µM and a TGI (PC-3 prostate) of over 100 µM.
